Key:
NCI-H526 cell line = test: Cell viability assay for H526 cell (EZ-Cytox); type: cell-based; settings: Homo sapiens, NCI-H526, 120 h; H526 cells, 5 days, 3000 nM to 0.46 nM
Experimental: (1) Culture of NCI-H526 Cell Line
(2) Treatment of Compounds of the Present Invention and Method of Cell Viability Assay
After treating the compound to each well to make the total volume of 200 μL, it was cultured in a CO2 incubator (Thermo Fisher Science, Cat. No. 4111) for 5 days.
The absorbance of the completely cultured sample was measured by setting the wavelength of a plate reader (BMG Labtech, CLARIOstar Plus) to […], and was measured after shaking for 3 minutes in a plate reader before measurement.
In Table 3, Activity represents IC50 value of each Exemplary Compound treatment group to H526 cell line (A: <30 nM, B: <50 nM, C: <100 nM, D: <200 nM, E: <400 nM).

PLK1 = target: T1, PLK1 (Homo sapiens, UniProt P53350); test: Luciferase assay for PLK1 in HeLa LgBit (Plk1-HiBit KI) cell line; type: cell-based; settings: 300 nM compound, luminescence after 9 hours
T1 construct: endogenous in cells; host or cells: HeLa LgBit (Plk1-HiBit KI): HeLa stably expressing LgBit, with a CRISPR/Cas9 knock-in of HiBit at the endogenous PLK1 locus
How it was run: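 HeLa cells stably expressing LgBit, with HiBit knocked in at the C-terminus of endogenous Plk1, released from a 24 h 2 mM thymidine block and grown 18 h. Endurazine added, then compound at 300 nM; luminescence tracked in real time, expressed as ratio to DMSO.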

T1 sequence (P53350 whole entry): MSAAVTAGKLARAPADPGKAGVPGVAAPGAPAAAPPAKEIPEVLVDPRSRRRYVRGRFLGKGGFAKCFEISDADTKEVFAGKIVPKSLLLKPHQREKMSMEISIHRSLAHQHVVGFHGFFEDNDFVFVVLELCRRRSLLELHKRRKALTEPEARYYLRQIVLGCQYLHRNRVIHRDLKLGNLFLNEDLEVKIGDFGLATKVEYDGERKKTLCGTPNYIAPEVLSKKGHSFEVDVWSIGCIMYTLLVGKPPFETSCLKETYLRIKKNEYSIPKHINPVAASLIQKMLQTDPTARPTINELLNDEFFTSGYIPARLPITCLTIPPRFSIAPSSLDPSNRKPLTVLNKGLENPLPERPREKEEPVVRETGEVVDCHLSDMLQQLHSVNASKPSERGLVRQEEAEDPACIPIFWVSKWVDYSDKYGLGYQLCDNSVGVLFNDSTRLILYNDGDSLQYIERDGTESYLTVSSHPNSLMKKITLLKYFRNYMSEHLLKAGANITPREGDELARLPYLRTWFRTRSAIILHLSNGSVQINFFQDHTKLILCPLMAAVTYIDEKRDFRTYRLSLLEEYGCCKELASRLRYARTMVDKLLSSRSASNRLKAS

| SMILES | IC50 (NCI-H526 cell line) [nM] | Activity: ratio of the luminescense value of each Exemplary Compound treatment group to DMSO treatment group (PLK1) |
| --- | --- | --- |
| COc1cc(C(=O)NN2CCN(C(=O)CCCNc3cccc4c3C(=O)N(C3CCC(=O)NC3=O)C4=O)CC2)c(F)cc1Nc1ncc2c(n1)N(C1CCCC1)CC(F)(F)C(=O)N2C (stereo not shown) [Compound 29, 4-((9-cyclopentyl-7,7-difluoro-5-methyl-6-oxo-6,7,8,9-tetrahydro-5H-pyrimido[4,5-b][1,4]diazepin-2-yl)amino)-N-(4-(4-((2-(2,6-dioxopiperidin-3-yl)-1,3-dioxoisoindolin-4-yl)amino)butanoyl)piperazin-1-yl)-2-fluoro-5-methoxybenzamide] | < 30 | ++ (++<0.6) |
| COc1cc(C(=O)NC2CCN(C(=O)CCCNc3cccc4c3C(=O)N(C3CCC(=O)NC3=O)C4=O)CC2)c(F)cc1Nc1ncc2c(n1)N(C(C)C)CC(F)(F)C(=O)N2C (stereo not shown) [Compound 33, 4-((7,7-difluoro-9-isopropyl-5-methyl-6-oxo-6,7,8,9-tetrahydro-5H-pyrimido[4,5-b][1,4]diazepin-2-yl)amino)-N-(1-(4-((2-(2,6-dioxopiperidin-3-yl)-1,3-dioxoisoindolin-4-yl)amino)butanoyl)piperidin-4-yl)-2-fluoro-5-methoxybenzamide] | < 200 | ++ (++<0.6) |
| COc1cc(C(=O)NC2CCN(C(=O)COc3cccc4c3C(=O)N(C3CCC(=O)NC3=O)C4=O)CC2)c(F)cc1Nc1ncc2c(n1)N(C1CCCC1)CC(F)(F)C(=O)N2C (stereo not shown) [Compound 37, 4-((9-cyclopentyl-7,7-difluoro-5-methyl-6-oxo-6,7,8,9-tetrahydro-5H-pyrimido[4,5-b][1,4]diazepin-2-yl)amino)-N-(1-(2-((2-(2,6-dioxopiperidin-3-yl)-1,3-dioxoisoindolin-4-yl)oxy)acetyl)piperidin-4-yl)-2-fluoro-5-methoxybenzamide] | < 400 | ++ (++<0.6) |
| COc1cc(C(=O)NC2CCN(C(=O)CCCSc3cccc4c3C(=O)N(C3CCC(=O)NC3=O)C4=O)CC2)c(F)cc1Nc1ncc2c(n1)N(C1CCCC1)CC(F)(F)C(=O)N2C (stereo not shown) [Compound 42, 4-((9-cyclopentyl-7,7-difluoro-5-methyl-6-oxo-6,7,8,9-tetrahydro-5H-pyrimido[4,5-b][1,4]diazepin-2-yl)amino)-N-(1-(4-((2-(2,6-dioxopiperidin-3-yl)-1,3-dioxoisoindolin-4-yl)thio)butanoyl)piperidin-4-yl)-2-fluoro-5-methoxybenzamide] | < 100 | ++ (++<0.6) |
| COc1cc(C(=O)NN2CCN(C3CCN(c4cccc5c4C(=O)N(C4CCC(=O)NC4=O)C5=O)C3)CC2)ccc1Nc1ncc2c(n1)N(C(C)C)CC(F)(F)C(=O)N2C (stereo not shown) [Compound 52, 4-((7,7-difluoro-9-isopropyl-5-methyl-6-oxo-6,7,8,9-tetrahydro-5H-pyrimido[4,5-b][1,4]diazepin-2-yl)amino)-N-(4-(1-(2-(2,6-dioxopiperidin-3-yl)-1,3-dioxoisoindolin-4-yl)pyrrolidin-3-yl)piperazin-1-yl)-3-methoxybenzamide] | < 30 | ++ (++<0.6) |
| COc1cc(C(=O)NCC2CCN(CC3CCN(c4cccc5c4C(=O)N(C4CCC(=O)NC4=O)C5=O)CC3)CC2)ccc1Nc1ncc2c(n1)N(C1CCCC1)CC(F)(F)C(=O)N2C (stereo not shown) [Compound 53, 4-((9-cyclopentyl-7,7-difluoro-5-methyl-6-oxo-6,7,8,9-tetrahydro-5H-pyrimido[4,5-b][1,4]diazepin-2-yl)amino)-N-((1-((1-(2-(2,6-dioxopiperidin-3-yl)-1,3-dioxoisoindolin-4-yl)piperidin-4-yl)methyl)piperidin-4-yl)methyl)-3-methoxybenzamide] | < 50 | +++ (+++: <0.3) |
| COc1cc(C(=O)N2CCN(CCN3CCN(c4cccc5c4C(=O)N(C4CCC(=O)NC4=O)C5=O)CC3)CC2)ccc1Nc1ncc2c(n1)N(C1CCCC1)CC(F)(F)C(=O)N2C (stereo not shown) [Compound 86, 4-(4-(2-(4-(4-((9-cyclopentyl-7,7-difluoro-5-methyl-6-oxo-6,7,8,9-tetrahydro-5H-pyrimido[4,5-b][1,4]diazepin-2-yl)amino)-3-methoxybenzoyl)piperazin-1-yl)ethyl)piperazin-1-yl)-2-(2,6-dioxopiperidin-3-yl)isoindoline-1,3-dione] | < 400 | ++ (++<0.6) |
| COc1cc(C(=O)N2CCC(CCN3CCN(c4cccc5c4C(=O)N(C4CCC(=O)NC4=O)C5=O)CC3)CC2)ccc1Nc1ncc2c(n1)N(C1CCCC1)CC(F)(F)C(=O)N2C (stereo not shown) [Compound 94, 4-(4-(2-(1-(4-((9-cyclopentyl-7,7-difluoro-5-methyl-6-oxo-6,7,8,9-tetrahydro-5H-pyrimido[4,5-b][1,4]diazepin-2-yl)amino)-3-methoxybenzoyl)piperidin-4-yl)ethyl)piperazin-1-yl)-2-(2,6-dioxopiperidin-3-yl)isoindoline-1,3-dione] | < 400 | ++ (++<0.6) |
| COc1cc(C(=O)N2CCC(CN3CCN(c4ccc5c(c4)C(=O)N(C4CCC(=O)NC4=O)C5=O)CC3)CC2)ccc1Nc1ncc2c(n1)N(C1CCCC1)CC(F)(F)C(=O)N2C (stereo not shown) [Compound 97, 5-(4-((1-(4-((9-cyclopentyl-7,7-difluoro-5-methyl-6-oxo-6,7,8,9-tetrahydro-5H-pyrimido[4,5-b][1,4]diazepin-2-yl)amino)-3-methoxybenzoyl)piperidin-4-yl)methyl)piperazin-1-yl)-2-(2,6-dioxopiperidin-3-yl)isoindoline-1,3-dione] | < 400 | ++ (++<0.6) |
| COc1cc(C(=O)N2CCC(CCCN3CCN(c4ccc5c(c4)C(=O)N(C4CCC(=O)NC4=O)C5=O)CC3)CC2)ccc1Nc1ncc2c(n1)N(C1CCCC1)CC(F)(F)C(=O)N2C (stereo not shown) [Compound 99, 5-(4-(3-(1-(4-((9-cyclopentyl-7,7-difluoro-5-methyl-6-oxo-6,7,8,9-tetrahydro-5H-pyrimido[4,5-b][1,4]diazepin-2-yl)amino)-3-methoxybenzoyl)piperidin-4-yl)propyl)piperazin-1-yl)-2-(2,6-dioxopiperidin-3-yl)isoindoline-1,3-dione] | < 400 | ++ (++<0.6) |
| COc1cc(N2CCC(CN3CCN(c4cccc5c4C(=O)N(C4CCC(=O)NC4=O)C5=O)CC3)CC2)c(F)cc1Nc1ncc2c(n1)N(C1CCCC1)CC(F)(F)C(=O)N2C (stereo not shown) [Compound 103, 4-(4-((1-(4-((9-cyclopentyl-7,7-difluoro-5-methyl-6-oxo-6,7,8,9-tetrahydro-5H-pyrimido[4,5-b][1,4]diazepin-2-yl)amino)-2-fluoro-5-methoxyphenyl)piperidin-4-yl)methyl)piperazin-1-yl)-2-(2,6-dioxopiperidin-3-yl)isoindoline-1,3-dione] | < 200 | ++ (++<0.6) |
| COc1cc(C(=O)NC2CCCN(C(=O)CN3CCN(c4cccc5c4C(=O)N(C4CCC(=O)NC4=O)C5=O)CC3)C2)ccc1Nc1ncc2c(n1)N(C1CCCC1)CC(F)(F)C(=O)N2C (stereo not shown) [Compound 122, 4-((9-cyclopentyl-7,7-difluoro-5-methyl-6-oxo-6,7,8,9-tetrahydro-5H-pyrimido[4,5-b][1,4]diazepin-2-yl)amino)-N-(1-(2-(4-(2-(2,6-dioxopiperidin-3-yl)-1,3-dioxoisoindolin-4-yl)piperazin-1-yl)acetyl)piperidin-3-yl)-3-methoxybenzamide] | < 30 | +++ (+++: <0.3) |
| COc1cc(C(=O)NC2CCN(C(=O)CN3CCN(c4ccc5c(c4)C(=O)N(C4CCC(=O)NC4=O)C5=O)CC3)CC2)ccc1Nc1ncc2c(n1)N(C1CCCC1)CC(F)(F)C(=O)N2C (stereo not shown) [Compound 127, 4-((9-cyclopentyl-7,7-difluoro-5-methyl-6-oxo-6,7,8,9-tetrahydro-5H-pyrimido[4,5-b][1,4]diazepin-2-yl)amino)-N-(1-(2-(4-(2-(2,6-dioxopiperidin-3-yl)-1,3-dioxoisoindolin-5-yl)piperazin-1-yl)acetyl)piperidin-4-yl)-3-methoxybenzamide] | < 100 | ++ (++<0.6) |
| COc1cc(C(=O)NC2CCN(CC3CN(c4ccc5c(c4)C(=O)N(C4CCC(=O)NC4=O)C5=O)C3)CC2)ccc1Nc1ncc2c(n1)N(C1CCCC1)CC(F)(F)C(=O)N2C (stereo not shown) [Compound 134, 4-((9-cyclopentyl-7,7-difluoro-5-methyl-6-oxo-6,7,8,9-tetrahydro-5H-pyrimido[4,5-b][1,4]diazepin-2-yl)amino)-N-(1-((1-(2-(2,6-dioxopiperidin-3-yl)-1,3-dioxoisoindolin-5-yl)azetidin-3-yl)methyl)piperidin-4-yl)-3-methoxybenzamide] | < 30 | +++ (+++: <0.3) |

Reference: patent US20250114460A1, “NOVEL PLK1 DEGRADATION INDUCING COMPOUND” (UPPTHERA, INC., priority 2021, published 2025)
